# Values joined by “and” are separate entries in the source; they are usually repeats but may differ in a detail not shown here. Equal entries are not always repeated.
# Test system: whole blood
# Assay: Calcium Gluconate (CG) Powder Test: coagulation of whole blood with varying CG amounts
# Experimental: A standard amount of ACD-A anticoagulant and Kaoiln powder per 1 ml of whole blood was used • 2 ml of ACD-A for 15 ml blood=0.133 ml ACD-A/1 ml blood • 28 mg Kaolin powder for 15 ml blood=1.87 mg Kaolin/1 ml blood
# Different amounts of CG where tested-CG particle size after sifting is 125 micron • 20 mg for 15 ml of blood=1.33 mgCG/1 ml blood • 50 mg for 15 ml of blood=3.33 mgCG/1 ml blood • 85 mg for 15 ml of blood=5.66 mgCG/1 ml blood • 110 mg for 15 ml of blood=7.33 mgCG/1 ml blood • 140 mg for 15 ml of blood=9.33 mgCG/1 ml blood
# Coagulation time and clot structure strength were documented. Blood samples of 5 different volunteers were used.
# [1] = 20 mg CG for 15 ml blood, Average of 5 volunteers
# [2] = 50 mg CG for 15 ml blood, Average of 5 volunteers
# [3] = 85 mg CG for 15 ml blood, Average of 5 volunteers
# [4] = 110 mg CG for 15 ml blood, Average of 5 volunteers
# [5] = 140 mg CG for 15 ml blood, Average of 5 volunteers
substance,measurement,setting,value
Calcium Gluconate [CG],Coagulation time,"20 mg CG for 15 ml blood, 2 ml ACD-A, 28 mg Kaolin, individual volunteers #1-#5, good time is under 6 minutes",17 and 14 and 12 and 14.5 and 15
same,Clot strength,[1],Low
same,Coagulation time,[1],14.5
same,Clot strength,"20 mg CG for 15 ml blood, individual volunteers, visual",Low
same,Coagulation time,"50 mg CG for 15 ml blood, 2 ml ACD-A, 28 mg Kaolin, individual volunteers #1-#5, good time is under 6 minutes",6.7 and 5.4 and 6 and 6.6 and 6.8
same,Clot strength,[2],Medium
same,Coagulation time,[2],6.3
same,Clot strength,"50 mg CG for 15 ml blood, individual volunteers, visual",Medium
same,Coagulation time,"85 mg CG for 15 ml blood, 2 ml ACD-A, 28 mg Kaolin, individual volunteers #1-#5, good time is under 6 minutes",4.8 (2×) and 4.6 (2×) and 4.7
same,Clot strength,[3],Strong
same,Coagulation time,[3],4.88
same,Clot strength,"85 mg CG for 15 ml blood, individual volunteers, visual",Strong
same,Coagulation time,"110 mg CG for 15 ml blood, 2 ml ACD-A, 28 mg Kaolin, individual volunteers #1-#5, good time is under 6 minutes",4.7 and 5.2 and 4.6 and 4.9 and 5
same,Clot strength,[4],Strong
same,Coagulation time,[4],4.7
same,Clot strength,"110 mg CG for 15 ml blood, individual volunteers, visual",Strong
same,Coagulation time,"140 mg CG for 15 ml blood, 2 ml ACD-A, 28 mg Kaolin, individual volunteers #1-#5, good time is under 6 minutes",4.8 and 4.7 and 5 and 5.2 and 4.9
same,Clot strength,[5],Strong
same,Coagulation time,[5],4.92
same,Clot strength,"140 mg CG for 15 ml blood, individual volunteers, visual",Strong

# Reference: US12364713B2, “Coagulation mold, a kit and a method for preparing a coagulated blood mass” (Reddress Ltd., priority 2022, dated 2025)
